The text below walks through data of patent publication US20210353751A1, “COMBINATION THERAPIES FOR TREATMENT OF INFLAMMATORY DISEASES” (The Regents of The University of California, priority 2018, published 2021).

Read-outs that look alike come from different tables or passages of the source.

The conditions of data set [1]: after intravenous or intraperitoneal injection; cited from earlier work.
For data set [2], the system named is Newly-diabetic NOD mice. The settings on record: oral GABA at 20 mg/ml, monotherapy; cited from earlier work.
The subject of data set [3] is Newly-diabetic NOD mice. Kind of data set: Anti-CD3 plus GABA in newly-diabetic NOD mice: glycemia and islet staining (insulin/glucagon) after three months. The format is in vivo. The protocol: Newly-diabetic NOD mice (blood glucose 220-300 mg/dL on two consecutive days) were treated with anti-CD3 (non-Fc binding anti-CD3ε F(ab′)2 from BioExpress, 40 μg/day intravenously for 5 consecutive days) and immediately began one of the following additional treatments: • (1) control PBS IP; • (2) GABA (dissolved in PBS, 250 μg/kg, IP); • (3) control plain drinking water; or • (4a) drinking water containing 6 mg/ml GABA or (4b) drinking water containing 20 mg/ml GABA. Mice drink approximately 4 ml/day, so Group 4a consumed approximately 24 mg/day of GABA and Group 4b consumed approximately 80 mg/day of GABA.
Three months after beginning treatment, pancreata from the mice were removed and sections (4 μm) were stained with Alexa Fluor 647-anti-glucagon (shown in red in the Figures) and Alexa-488 conjugated with anti-insulin (shown in green in the Figures), followed by staining with 4′,6-diamidino-2-phenylindole (“DAPI”). Images were captured using a fluorescent microscope and at least 30 islets from each group of mice (n=4) were analyzed. Data are representative islet images or expressed as the mean±standard deviation (“SD”) of each group.

For data set [4], the system named is newly severely hyperglycemic NOD mice. As to the kind of experiment: Combined GABA-R agonist and low-dose anti-CD3 treatment in severely hyperglycemic NOD mice (remission/relapse). The data set is classed as in vivo. The settings on record: homotaurine alone 0.25 mg/ml; severe hyperglycemia at entry. The protocol: The inventors hypothesized that combining GABA-Receptor activation with an immunosuppressant may allow effective disease reversal using lower dosages of the immunosuppressant and thereby reduce the possibility of side effects. The inventors chose to test anti-CD3 since it is a prototypic immunosuppressant that is in clinical use. In pilot studies, the inventors developed a low-dose anti-CD3 treatment protocol (35 μg anti-CD3 on three consecutive days), which reversed hyperglycemia in about a third of newly-diabetic NOD mice with severe hyperglycemia at entry into the study (blood glucose >350 mg/dL). The inventors then treated newly severely hyperglycemic NOD mice with low-dose anti-CD3 together with homotaurine (0.25 mg/ml), GABA (6 mg/ml), or plain water.
For these studies, the inventors initiated treatment when the NOD mice had blood glucose levels >350 mg/dL. […] Treated mice with two consecutive blood glucose readings below 250 mg/dL were considered to be in remission after which two consecutive blood glucose readings >250 mg/dL was considered to be disease relapse […]
Treatment was initiated when the NOD mice had blood glucose levels >350 mg/dL. […] Treated mice with two consecutive blood glucose readings below 250 mg/dL were considered to be in remission after which two consecutive blood glucose readings >250 mg/dL was considered to be disease relapse.

For data set [5], the system named is PLN mononuclear cells of NOD mice. Kind of data set: Pancreatic lymph node (PLN) mononuclear cell analysis. To be noted: treated at 15-18 weeks in age, studied 3 weeks later; monotherapies relative to control, combination relative to monotherapies. The data set is classed as in vivo. An excerpt:
This increase was significant for CD4^+CD25^+Foxp3^+ cells in comparison to homotaurine monotherapy. Thus, combined therapy also elevated the average frequencies of CD4^+ and CD8^+ Tregs within the target tissue/PLN of NOD mice

Data set [6] relates to Newly-diabetic NOD mice. Kind of data set: Homotaurine monotherapy dose-finding study in newly-diabetic NOD mice. The data set is classed as in vivo. Here is the method:
To determine whether homotaurine had therapeutic potential in NOD mice, the inventors performed a dose finding study with homotaurine dissolved in the drinking water at 0, 0.08, 0.25 or 0.75 mg/ml. […] Newly-diabetic NOD mice that were untreated rapidly progressed to severe hyperglycemia within 1 week. […] Thus, oral homotaurine monotherapy at an appropriate dose can quickly correct hyperglycemia and maintain normoglycemia for a short period, but most of the treated mice become hyperglycemic again.
A dose finding study was performed with homotaurine dissolved in the drinking water at 0, 0.08, 0.25 or 0.75 mg/ml to determine the therapeutic potential in NOD mice. […] Newly-diabetic NOD mice that were untreated rapidly progressed to severe hyperglycemia within 1 week. […] Thus, oral homotaurine monotherapy at an appropriate dose can quickly correct hyperglycemia but most of the treated mice become hyperglycemic again within a short period.
NOD mice (Taconic Farms, Germantown) were housed in a specific pathogen-free facility. Only female NOD mice were used.
Blood glucose levels were monitored 2-3 times weekly using a One Touch Ultrasensitive monitor and those with two consecutive daily blood glucose levels between 250-300 mg/dL were entered into the study. The mice were randomly assigned to groups that continually received water containing 0, 0.08, 0.25, or 0.75 mg/ml homotaurine, pH 7.2 through their drinking water. Each mouse consumed on average about 4-5 ml of water per day. Water bottles were changed every five days. Treated mice with two consecutive blood glucose readings below 250 mg/dL were considered to be in remission after which two consecutive blood glucose readings >250 mg/dL was considered disease relapse.

Data set [7] deals with splenic Tregs of SJL mice. The settings on record: homotaurine monotherapy, EAE model; cited from earlier work.
The next data set has as its system GABA-R. The settings on record: relative to GABA; cited from earlier work.
Setting [8] is: homotaurine 0.08 mg/ml in drinking water.
[9] abbreviates: homotaurine 0.25 mg/ml in drinking water.

Take `NCCCC(=O)O` [GABA, γ-aminobutyric acid]: in data set [1], the half-life in plasma was 20 min. In the data set with Newly-diabetic NOD mice [2], the restoration of normoglycemia result is given as “restored normoglycemia in all mice” and the “time at which mice became hyperglycemic again” value is recorded as “generally within five weeks”. Further, the “numbers of bihormonal cells versus groups treated with lower dosages of GABA” value with Newly-diabetic NOD mice [3] (GABA 20 mg/ml in drinking water with anti-CD3) is on record as “greater numbers of bihormonal cells”. The “frequency of bihormonal glucagon+ insulin+ cells versus control groups” value in the data set on Newly-diabetic NOD mice [3] (all GABA-treated groups (250 μg/kg IP, 6 or 20 mg/ml in water), all with anti-CD3) is “significantly increased”. Also, the “increase in the frequency of insulin+ cells per islet relative to control groups who received anti-CD3 alone” value in the data set with Newly-diabetic NOD mice [3] (highest GABA dose (20 mg/ml in drinking water) with anti-CD3) was found to be 26 fold.
In the case of `NCCCS(=O)(=O)O` [homotaurine], in data set [4], the induction of remission result was “unable to induce remission”. In data set [5], the “frequency of CD4+CD25+Foxp3+ cells in the PLN” value is recorded as “significantly increased” and the “frequency of CD8+CD122+PD-1+ cells in the PLN” value is reported as “significantly increased”. The “half-life in plasma compared with GABA” value in data set [1] is “longer half-life than GABA”. In addition, in the data set on Newly-diabetic NOD mice [6] (homotaurine 0, 0.08, 0.25 or 0.75 mg/ml in drinking water), the “water or food consumption or body weights over the course of the study” value is listed as “None of the mouse groups under study differed”. Further, in the data set with Newly-diabetic NOD mice [6] (setting [8]), the “delay of disease progression (mean)” value was determined as 2.2 weeks and the “effect on disease progression” value was “delayed disease progression for a very brief period”. Further, in the data set on Newly-diabetic NOD mice [6] (setting [9]), the restoration of normoglycemia result is reported as “restored normoglycemia in all mice” and the “time at which most mice became hyperglycemic again” value is recorded as at most 6 weeks. The “effect on disease progression” value in the data set on Newly-diabetic NOD mice [6] (homotaurine 0.75 mg/ml in drinking water, on average less effective than 0.25 mg/ml) is on record as “some delay in disease progression”. Moreover, the “mean remission period for all mice” value in the data set on Newly-diabetic NOD mice [6] (homotaurine monotherapy 0.25 mg/ml in drinking water) stood at 14 weeks. In data set [7], the “frequency of splenic CD4+Foxp3+ Tregs” value was “increased the frequency” and the “frequency of splenic CD8+CD122+PD-1+ Tregs” value was “increased the frequency”. For the same compound, the “affinity for GABA-R, higher than GABA” value in the data set with GABA-R is on record as over 3 fold.
